The term CC50 denotes the concentration at which the toxic effect on the cells reaches its halfway point. Broadly, the IC50 is the concentration that inhibits the measured activity by half.

One compound from ChEMBL document CHEMBL5385917, “Irpetones A and B, Anti-Osteoclastic Heptaketides from a Marine Mesophotic Zone Ircinia Sponge-Associated Fungus Irpex sp. NBUF088” (J Nat Prod, 2024) can be followed below.

Each structure is given as a SMILES string. Active and inactive are the calls of the source. The calls are words filed in the database; no cut-off is given here.

Data set [1] in a line: Cytotoxicity against mouse BMMC cells assessed as inhibition of cell growth incubated for 48 hrs by MTT assay. Type of data set: toxicity, cell-based.
The test system of data set [2] is BMMC. Put plainly: Inhibition of RANKL-induced NFkappaB signaling in mouse BMMC cells assessed as inhibition of NFkappab nuclear translocation at 5 to 10 uM by Western blot analysis. Type of data set: cell-based. The following applies: dose 5-10 µM. (Immunoblotting shows a protein as a band on a membrane.)
Data set [3] deals with MAP kinase p38 (Mus musculus) (UniProt P47811+O08911+Q9WUI1+Q9Z1B7). Put plainly: Inhibition of RANKL-induced p38 MAPK phosphorylation in mouse BMMC cells by Western blot analysis. The conditions noted are these: dose 0.5-1.5 µM. In kind it is cell-based.
Data set [4] has as its target Mitogen-activated protein kinase 1 and 3 (ERK2 and ERK1) (Mus musculus) (UniProt P63085+Q63844). The data set is described as follows: Inhibition of RANKL-induced ERK1/2 phosphorylation in mouse BMMC cells by Western blot analysis. In kind it is cell-based. The conditions noted are these: dose 0.5-1.5 µM.
Data set [5] relates to BMMC. The data set is described as follows: Inhibition of RANKL-induced JNK1/2 phosphorylation in mouse BMMC cells by Western blot analysis. In kind it is cell-based. The conditions noted are these: dose 0.5-1.5 µM.
Data set [6] can be described thus: Selectivity index, ratio of CC50 for cytotoxicity against mouse BMMC cells to IC50 for anti-osteoclastogenic activity in mouse BMMC cells. In kind it is toxicity, cell-based. The following applies: read-out: Ratio CC50/IC50.
The test system of data set [7] is BMMC. Put plainly: Anti-osteoclastogenic activity in mouse BMMC cells assessed as inhibition of RANKL mediated osteoclast differentiation by TRAP activity. In kind it is functional, cell-based.

Chain of Mitogen-activated protein kinase 1 and 3 (ERK2 and ERK1) (Mus musculus) (P63085 whole entry, looked up): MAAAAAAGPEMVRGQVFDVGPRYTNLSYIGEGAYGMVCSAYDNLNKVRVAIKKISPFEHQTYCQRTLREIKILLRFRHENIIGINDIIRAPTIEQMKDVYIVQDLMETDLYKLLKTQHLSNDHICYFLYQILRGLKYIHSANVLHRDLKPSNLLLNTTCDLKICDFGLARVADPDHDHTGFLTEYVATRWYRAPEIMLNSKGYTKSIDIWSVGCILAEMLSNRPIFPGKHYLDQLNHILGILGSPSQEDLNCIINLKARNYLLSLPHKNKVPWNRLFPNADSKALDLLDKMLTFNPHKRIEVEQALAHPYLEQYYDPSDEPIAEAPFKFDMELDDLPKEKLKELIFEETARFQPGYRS
Chain of Mitogen-activated protein kinase 1 and 3 (ERK2 and ERK1) (Mus musculus) (Q63844 whole entry, looked up): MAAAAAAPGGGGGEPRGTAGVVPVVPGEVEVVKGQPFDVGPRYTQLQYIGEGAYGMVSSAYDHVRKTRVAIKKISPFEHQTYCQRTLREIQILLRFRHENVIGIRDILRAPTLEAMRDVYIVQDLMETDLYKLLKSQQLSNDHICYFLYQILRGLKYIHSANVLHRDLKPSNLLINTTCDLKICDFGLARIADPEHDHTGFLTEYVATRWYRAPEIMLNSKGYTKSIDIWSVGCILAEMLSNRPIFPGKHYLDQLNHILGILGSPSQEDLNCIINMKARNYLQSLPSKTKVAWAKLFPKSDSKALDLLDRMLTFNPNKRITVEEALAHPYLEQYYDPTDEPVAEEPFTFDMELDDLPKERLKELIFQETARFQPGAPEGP

Take `C[C@@H]1C=C2C=C[C@@](C)(O)[C@]3(C)C(=O)[C@@](O)(CO)O[C@@H](C1)[C@@H]23`: the CC50 at 48 h in data set [1] was above 30 µM. In addition, in the data set with BMMC [2], the inhibition entry is “Active”. The inhibition result (in data set [3]; in data set [4]; in the data set with BMMC [5]) was “Dose-Dependent Effect” throughout. Further, the selectivity ratio in data set [6] was above 4.8. For the same compound, the half-maximal inhibitory concentration (IC50) in the data set with BMMC [7] stood at 6.3 µM.
